What all share (type): cell-based, human
One assay deals with PC-3 cells. Briefly: Anti-proliferative toxicity against prostate cancer cell line PC-3 (CCK8). The conditions noted are these: Homo sapiens, 72 h, 3 days. The essentials:
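PC-3 cells (4000/well, pre-cultured 24 h) exposed in triplicate to compound at final 0.00001-1.0 μM for 3 days at 37 °C, 5% CO2. Viability read by CCK8, 1-4 h at 37 °C, absorbance at 450 nm.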

A further assay concerns 22Rv1 cells. Briefly: Anti-proliferative toxicity against prostate cancer cell line 22Rv1 (CCK8). As to conditions: Homo sapiens, 72 h, 3 days, CCK8. In outline: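 22Rv1 cells pre-cultured for 48 h, then exposed to compounds at 0.00001-1.0 μM final, in triplicate, for 3 days. Viability read by CCK8 absorbance at 450 nm after 1-4 h at 37 °C.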
The subject of another assay is VCaP cells. The assay can be described thus: Anti-proliferative toxicity against prostate cancer cell line Vcap (CCK8). The conditions noted are these: Homo sapiens, 72 h, 3 days, CCK8. The essentials: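 VCaP cells (DMEM, 10% FBS) seeded 20000 cells/well, cultured 72 h, then exposed in triplicate to compound at final well concentrations of 0.00001–0.16 μM for 3 days at 37 °C, 5% CO2. Viability by CCK8, 1–4 h at 37 °C, absorbance at 450 nm.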

Consider `C[C@]12C=CC(=O)N[C@@H]1CC[C@@H]1[C@@H]2CC[C@]2(C)[C@@H](C(=O)Nc3cccc(NC4CCCC(Nc5cccc6c5C(=O)N(C5CCC(=O)NC5=O)C6=O)C4)c3)CC[C@@H]12` (stereo partly drawn) [C58, N-(3-(N—(N-(4-(2-(3-(2,6-dioxopiperidine))-isoindole-1,3-dione))cyclohexanediamine))phenyl)-3-oxo-4-aza-5α-androst-1-ene-17β-carboxamide], for which the IC50 fell in the range of 0.01 to 1 µM in the assay with PC-3 cells, 0.0001 to 0.01 µM in the assay with 22Rv1 cells and 0.0001 to 0.01 µM with VCaP cells.
For `C[C@]12C=CC(=O)N[C@@H]1CC[C@@H]1[C@@H]2CC[C@]2(C)[C@@H](C(=O)Nc3cccc(N[C@H]4CCC[C@H](Nc5cccc6c5C(=O)N(C5CCC(=O)NC5=O)C6=O)C4)c3)CC[C@@H]12` (stereo partly drawn) [C60, N-(3-(N—(N-(4-(2-(3-(2,6-dioxopiperidine))-isoindole-1,3-dione))-1S,3S-cyclohexanediamine))phenyl)-3-oxo-4-aza-5α-androst-1-ene-17β-carboxamide], the 50% inhibitory concentration (IC50) is above 1 µM in the assay on PC-3 cells, 0.01 to 1 µM in the assay on 22Rv1 cells and 0.01 to 1 µM in the assay on VCaP cells.
Take `C[C@]12C=CC(=O)N[C@@H]1CC[C@@H]1[C@@H]2CC[C@]2(C)[C@@H](C(=O)Nc3cccc(N[C@H]4CCC[C@@H](Nc5cccc6c5C(=O)N(C5CCC(=O)NC5=O)C6=O)C4)c3)CC[C@@H]12` (stereo partly drawn) [C61, N-(3-(N—(N-(4-(2-(3-(2,6-dioxopiperidine))-isoindole-1,3-dione))-1S,3R-cyclohexanediamine))phenyl)-3-oxo-4-aza-5α-androst-1-ene-17β-carboxamide]: the IC50 in the assay on PC-3 cells, with 22Rv1 cells and in the assay on VCaP cells was above 1 µM in each case.
Regarding `C[C@]12C=CC(=O)N[C@@H]1CC[C@@H]1[C@@H]2CC[C@]2(C)[C@@H](C(=O)Nc3cccc(N[C@@H]4CCC[C@@H](Nc5cccc6c5CN(C5CCC(=O)NC5=O)C6=O)C4)c3)CC[C@@H]12` (stereo partly drawn) [C62, N-(3-(N—(N-(4-(2-(3-(2,6-dioxopiperidine))-1-oxo-2,3-dihydro-1H-isoindol))-1R,3R-cyclohexanediamine))phenyl)-3-oxo-4-aza-5α-androst-1-ene-17β-carboxamide], the IC50 in the assay on PC-3 cells is above 1 µM; in the assay on 22Rv1 cells it was above 1 µM; in the assay on VCaP cells, 0.01 to 1 µM.
On to `C[C@]12C=CC(=O)N[C@@H]1CC[C@@H]1[C@@H]2CC[C@]2(C)[C@@H](C(=O)Nc3cccc(N[C@@H]4CCC[C@@H](Nc5cccc6c5C(=O)N([C@@H]5CCC(=O)NC5=O)C6=O)C4)c3)CC[C@@H]12` [C64, N-(3-(N—(N-(4-(2-(3R-(2,6-dioxopiperidine))-isoindole-1,3-dione))-1R,3R-cyclohexanediamine))phenyl)-3-oxo-4-aza-5α-androst-1-ene-17β-carboxamide], for which the 50% inhibitory concentration (IC50) in the assay on PC-3 cells, in the assay on 22Rv1 cells and with VCaP cells was 0.0001 to 0.01 µM throughout.
Turning to `C[C@]12C=CC(=O)N[C@@H]1CC[C@@H]1[C@@H]2CC[C@]2(C)[C@@H](C(=O)Nc3cccc(N[C@@H]4CCC[C@@H](Nc5cccc6c5CN([C@H]5CCC(=O)NC5=O)C6=O)C4)c3)CC[C@@H]12` [C65, N-(3-(N—(N-(4-(2-(3S-(2,6-dioxopiperidine))-1-oxo-2,3-dihydro-1H-isoindol))-1R,3R-cyclohexanediamine))phenyl)-3-oxo-4-aza-5α-androst-1-ene-17β-carboxamide], the values for the IC50 in the assay on PC-3 cells, with 22Rv1 cells and in the assay with VCaP cells were above 1 µM, 0.01 to 1 µM and 0.01 to 1 µM, respectively.
Regarding `C[C@]12C=CC(=O)N[C@@H]1CC[C@@H]1[C@@H]2CC[C@]2(C)[C@@H](C(=O)Nc3cccc(N[C@@H]4CCC[C@@H](Nc5cccc6c5CN([C@@H]5CCC(=O)NC5=O)C6=O)C4)c3)CC[C@@H]12` [C66, N-(3-(N—(N-(4-(2-(3R-(2,6-dioxopiperidine))-1-oxo-2,3-dihydro-1H-isoindol))-1R,3R-cyclohexanediamine))phenyl)-3-oxo-4-aza-5α-androst-1-ene-17β-carboxamide], the half-inhibitory concentration (IC50) with PC-3 cells, in the assay on 22Rv1 cells and in the assay with VCaP cells was above 1 µM in each case.
Regarding `CC(C)(C)C(=O)OCN1C(=O)CC[C@H](N2C(=O)c3cccc(N[C@@H]4CCC[C@@H](Nc5cccc(NC(=O)[C@H]6CC[C@H]7[C@@H]8CC[C@H]9NC(=O)C=C[C@]9(C)[C@H]8CC[C@]67C)c5)C4)c3C2=O)C1=O` [C67, N-(3-(N—(N-(4-(2-(3S-(1-pivaloyloxymethyl-2,6-dioxopiperidine))-isoindole-1,3-dione))-1R,3R-cyclohexanediamine))phenyl)-3-oxo-4-aza-5α-androst-1-ene-17β-carboxamide], the IC50 with PC-3 cells was 0.0001 to 0.01 µM; in the assay on 22Rv1 cells it was 0.0001 to 0.01 µM; in the assay with VCaP cells it was at most 0.0001 µM.
Take `[2H][C@@]1(Nc2cccc(NC(=O)[C@H]3CC[C@H]4[C@@H]5CC[C@H]6NC(=O)C=C[C@]6(C)[C@H]5CC[C@]34C)c2)CCC[C@@]([2H])(Nc2cccc3c2C(=O)N(C2CCC(=O)NC2=O)C3=O)C1` (stereo partly drawn) [C68, N-(3-(N—(N-(4-(2-(3-(2,6-dioxopiperidine))-isoindole-1,3-dione))-1,3-dideutero-1R,3R-cyclohexanediamine))phenyl)-3-oxo-4-aza-5α-androst-1-ene-17β-carboxamide]: the IC50 with PC-3 cells is 0.0001 to 0.01 µM; in the assay on 22Rv1 cells, 0.0001 to 0.01 µM; in the assay on VCaP cells it was at most 0.0001 µM.
Regarding `CC1[C@H](Nc2cccc(NC(=O)[C@H]3CC[C@H]4[C@@H]5CC[C@H]6NC(=O)C=C[C@]6(C)[C@H]5CC[C@]34C)c2)CCC[C@H]1Nc1cccc2c1C(=O)N(C1CCC(=O)NC1=O)C2=O` (stereo partly drawn) [C69, N-(3-(N—(N-(4-(2-(3-(2,6-dioxopiperidine))-isoindole-1,3-dione))-2-methyl-1R,3R-cyclohexanediamine))phenyl)-3-oxo-4-aza-5α-androst-1-ene-17β-carboxamide], the values for the concentration for half-maximal inhibition (IC50) with PC-3 cells, in the assay with 22Rv1 cells and with VCaP cells were 0.01 to 1 µM, 0.0001 to 0.01 µM and 0.0001 to 0.01 µM, respectively.
As to `C[C@]12C=CC(=O)N[C@@H]1CC[C@@H]1[C@@H]2CC[C@]2(C)[C@@H](C(=O)Nc3cccc(N[C@H]4C[C@H](Nc5cccc6c5C(=O)N(C5CCC(=O)NC5=O)C6=O)CC(F)(F)C4)c3)CC[C@@H]12` (stereo partly drawn) [C74, N-(3-(N—(N-(4-(2-(3-(2,6-dioxopiperidine))-isoindole-1,3-dione))-5,5-difluoro-1S,3S-cyclohexanediamine))phenyl)-3-oxo-4-aza-5α-androst-1-ene-17β-carboxamide], the 50% inhibitory concentration (IC50) in the assay with PC-3 cells fell in the range of 0.01 to 1 µM; in the assay on 22Rv1 cells, 0.0001 to 0.01 µM; in the assay on VCaP cells it was 0.0001 to 0.01 µM.
Turning to `C[C@]12C=CC(=O)N[C@@H]1CC[C@@H]1[C@@H]2CC[C@]2(C)[C@@H](C(=O)Nc3cccc(N[C@@H]4COC[C@@H](Nc5cccc6c5C(=O)N(C5CCC(=O)NC5=O)C6=O)C4)c3)CC[C@@H]12` (stereo partly drawn) [C75, N-(3-(N—(N-(4-(2-(3-(2,6-dioxopiperidine))-isoindole-1,3-dione))-tetrahydropyran-3S,5S-diamine))phenyl)-3-oxo-4-aza-5α-androst-1-ene-17β-carboxamide], the concentration for half-maximal inhibition (IC50) with PC-3 cells, in the assay on 22Rv1 cells and in the assay with VCaP cells was 0.01 to 1 µM in each case.
Turning to `C[C@]12C=CC(=O)N[C@@H]1CC[C@@H]1[C@@H]2CC[C@]2(C)[C@@H](C(=O)Nc3cccc(N[C@@H]4CNC[C@@H](Nc5cccc6c5C(=O)N(C5CCC(=O)NC5=O)C6=O)C4)c3)CC[C@@H]12` (stereo partly drawn) [C76, N-(3-(N—(N-(4-(2-(3-(2,6-dioxopiperidine))-isoindole-1,3-dione))-piperidine-3S,5S-diamine))phenyl)-3-oxo-4-aza-5α-androst-1-ene-17β-carboxamide], the IC50 in the assay on PC-3 cells, with 22Rv1 cells and in the assay on VCaP cells was 0.01 to 1 µM throughout.
`CN1C[C@@H](Nc2cccc(NC(=O)[C@H]3CC[C@H]4[C@@H]5CC[C@H]6NC(=O)C=C[C@]6(C)[C@H]5CC[C@]34C)c2)C[C@H](Nc2cccc3c2C(=O)N(C2CCC(=O)NC2=O)C3=O)C1` (stereo partly drawn) [C77, N-(3-(N—(N-(4-(2-(3-(2,6-dioxopiperidine))-isoindole-1,3-dione))-1-methylpiperidine-3S,5S-diamine))phenyl)-3-oxo-4-aza-5α-androst-1-ene-17β-carboxamide]: the IC50 with PC-3 cells, with 22Rv1 cells and with VCaP cells was 0.01 to 1 µM throughout.
`C[C@]12C=CC(=O)N[C@@H]1CC[C@@H]1[C@@H]2CC[C@]2(C)[C@@H](C(=O)Nc3cccc(N[C@@H]4CCC[C@@H](Nc5ccc(F)c6c5C(=O)N(C5CCC(=O)NC5=O)C6=O)C4)c3)CC[C@@H]12` (stereo partly drawn) [C78, N-(3-(N—(N-(7-fluoro-4-(2-(3-(2,6-dioxopiperidine))-isoindole-1,3-dione))-1R,3R-cyclohexanediamine))phenyl)-3-oxo-4-aza-5α-androst-1-ene-17β-carboxamide]: the half-maximal inhibitory concentration (IC50) in the assay on PC-3 cells, with 22Rv1 cells and in the assay on VCaP cells was 0.0001 to 0.01 µM throughout.
For the compound `C[C@]12C=CC(=O)N[C@@H]1CC[C@@H]1[C@@H]2CC[C@]2(C)[C@@H](C(=O)Nc3cccc(N[C@@H]4CCC[C@@H](Nc5cc(F)cc6c5C(=O)N(C5CCC(=O)NC5=O)C6=O)C4)c3)CC[C@@H]12` (stereo partly drawn) [C79, N-(3-(N—(N-(6-fluoro-4-(2-(3-(2,6-dioxopiperidine))-isoindole-1,3-dione))-1R,3R-cyclohexanediamine))phenyl)-3-oxo-4-aza-5α-androst-1-ene-17β-carboxamide], the concentration for half-maximal inhibition (IC50) with PC-3 cells, in the assay with 22Rv1 cells and with VCaP cells was 0.0001 to 0.01 µM throughout.

For the origin of these results see patent US20250213701A1, “MEDICAMENT FOR TREATING HUMAN TUMOR BASED ON ERF3A-TARGETING PROTEOLYSIS MECHANISM” (SUZHOU DEGEN BIO-MEDICAL CO., LTD., priority 2022, published 2025).
